Literature values as cited in patent publication US20100016430A1, “MODIFIED COCONUT OILS WITH BROAD ANTIMICROBIAL SPECTRUM” (MALAYSIAN AGRICULTERAL RESEARCH AND DEVELOPMENT IN, priority 2005, published 2010).

How the values were obtained:
[1] = test system: C. trachomatis; conditions: for Effect on C. trachomatis: 10 mM concentration
[2] = test system: H. pylori; conditions: 10 mM for 30 min at 37° C.
[3] = test system: C. albicans; conditions: Bergsson et al. 2001
[4] = test system: Pseudomonas spp; conditions: 250 and 500 ppm in naturally contaminated cottage cheese
[5] = test system: coliform; conditions: 250 and 500 ppm in naturally contaminated cottage cheese

SMILES: CCCCCCCC(=O)OCC(O)CO (stereo not drawn) [monocaprylin]
- Effect on C. trachomatis [1]: negligible effect

SMILES: CCCCCCCCCC(=O)OCC(O)CO (stereo not drawn) [monocaprin]
- Activity against H. pylori [2]: most active

SMILES: CCCCCCCCCCCC(=O)O [lauric acid]
- Killing of C. albicans / antimicrobial effect [3]: fastest and most effective killing
- Inactivation of C. trachomatis ([1]; 5 mM for 5 min): greater than 100,000 fold

SMILES: CCCCCCCCCCCCCC(=O)O [myristic acid]
- Killing of C. albicans / antimicrobial effect [3]: do not shown antimicrobial effect

SMILES: CCCCCCCC/C=C\CCCCCCCC(=O)O [oleic acid]
- Killing of C. albicans / antimicrobial effect [3]: do not shown antimicrobial effect

SMILES: CCCCCC/C=C\CCCCCCCC(=O)O [palmitoleic acid]
- Killing of C. albicans / antimicrobial effect [3]: do not shown antimicrobial effect

SMILES: CCCCCCCCCC(=O)O [capric acid]
- Killing of C. albicans / antimicrobial effect [3]: fastest and most effective killing

SMILES: CCCCCCCCCCCC(=O)OCC(O)CO (stereo not drawn) [monolaurin]
- Effect on C. trachomatis [1]: negligible effect
- Activity against H. pylori [2]: most active
- Inhibition of Pseudomonas spp [4]: more than 90%
- Inhibition of coliform [5]: more than 90%
